Measured values taken from patent US9834525B2, “Inhibitors of paxillin function and related compositions and methods” (UNIVERSITY OF TENNESSEE RESEARCH FOUNDATION, priority 2015, dated 2017).
“Also recorded” adds a separate entry of the source.

Key:
Assay type in all cases: cell-based, human
[1] = system: retinal endothelial cells (REC); assay: Annexin V/PI apoptosis analysis by flow cytometry in REC
Experimental: Harvested cells were washed twice with cold PBS/2% FBS. Pelleted cells were resuspended in Annexin V Binding Buffer (BioLegend, San Diego, Calif.) at a concentration of 5.0×10^6 cells/mL following manufacturer's instructions. 5.0×10^5 cells (100 μL) were labeled with 5 μL of FITC Annexin V and 10 μL of Propidium Iodide (PI) solution. Cells were vortexed gently and incubated for 15 minutes at RT in dark. 300 μL of Annexin V Binding Buffer were added to each sample tube and analyzed in BD LSRII Flow Cytometry Analyzer (BD Biosciences, San Jose, Calif.). Apoptotic cells were defined as Annexin V^+PI^neg while necrotic cells are defined as Annexin V^+PI^+. […]
To investigate the potential of compound (II-4) affecting the proliferative capacity of RECs treated with VEGF, proliferation was measured using the metabolic assay based on the tetrazolium salt, WST-1. […] Cells were harvested and apoptosis measured with Annexin-V/Propidium Iodide (PI) staining and analyzed using flow cytometry.
FIG. 18: REC Proliferation and Flow cytometry analysis of apoptosis in REC. A) VEGF-induced cellular proliferation was assessed using the WST-1 metabolic assay. […] B) Apoptosis was measured using Annexin V/PI staining Compound (II-4) (1 μM) appears to be non-cytotoxic to retinal endothelial cells after 24 hour incubation (n≈10,000 cells).

AKT (Ser473) = assay: Western blot of VEGF-induced AKT phosphorylation in REC; settings: REC under VEGF; compound (II-4) 500 nM, SU6656 1 μM
Experimental: REC, Mel 270, OMM 2.5 under Hepatocyte Growth Factor (HGF) or Vascular Endothelial Growth Factor (VEGF) stimulation conditions: Cell lysates were collected in RIPA lysis buffer (50 mM Tris-HCl, pH 7.4, 150 mM NaCl, 2 mM EDTA, 1% Nonidet P-40, 0.1% SDS) with protease 1× inhibitor cocktail (Roche; Indianapolis, Ind.). Lysates were kept on ice and centrifuged at 10,000×g×10 minutes and total protein was measured using the BCA assay (Pierce, Rockford, Ill.). Protein samples were mixed with 4×LDS loading buffer with 2.5% 2-mercaptoethanol (Sigma-Aldrich), heated to 70° C. for 10 minutes, and loaded on NuPAGE 4-12% Bis-Tris gel (Invitrogen, Carlsbad, Calif.). Immunoblotting was performed with nitrocellulose membranes (Bio-Rad, Hercules, Calif.) at 170-mA start and 110-mA end at 25 V for two hours in NuPAGE transfer buffer (Invitrogen) containing 20% methanol. Membranes were blocked using Odyssey blocking buffer (LI-COR; Lincoln, Nebr.) for one hour at room temperature with gentle shaking Membranes were then incubated at 4° C. with specific primary antibodies (1:1000) overnight. Cellular protein was normalized using rabbit-GAPDH or mouse-α-Tubulin [1:20,000] (Cell Signaling, Danvers, Mass.; LI-COR, respectively). […] Dual-channel infrared scan and quantitation of immunoblots were conducted using the ODYSSEY Sa infrared imaging system with Image Studio (Ver. 3.1.4) (LI-COR). […]

paxillin (pY118) = assay: Western blot of VEGF-induced paxillin Y118 phosphorylation in REC
Experimental: REC, Mel 270, OMM 2.5 under Hepatocyte Growth Factor (HGF) or Vascular Endothelial Growth Factor (VEGF) stimulation conditions: Cell lysates were collected in RIPA lysis buffer (50 mM Tris-HCl, pH 7.4, 150 mM NaCl, 2 mM EDTA, 1% Nonidet P-40, 0.1% SDS) with protease 1× inhibitor cocktail (Roche; Indianapolis, Ind.). Lysates were kept on ice and centrifuged at 10,000×g×10 minutes and total protein was measured using the BCA assay (Pierce, Rockford, Ill.). Protein samples were mixed with 4×LDS loading buffer with 2.5% 2-mercaptoethanol (Sigma-Aldrich), heated to 70° C. for 10 minutes, and loaded on NuPAGE 4-12% Bis-Tris gel (Invitrogen, Carlsbad, Calif.). Immunoblotting was performed with nitrocellulose membranes (Bio-Rad, Hercules, Calif.) at 170-mA start and 110-mA end at 25 V for two hours in NuPAGE transfer buffer (Invitrogen) containing 20% methanol. Membranes were blocked using Odyssey blocking buffer (LI-COR; Lincoln, Nebr.) for one hour at room temperature with gentle shaking Membranes were then incubated at 4° C. with specific primary antibodies (1:1000) overnight. Cellular protein was normalized using rabbit-GAPDH or mouse-α-Tubulin [1:20,000] (Cell Signaling, Danvers, Mass.; LI-COR, respectively). Secondary antibodies (IRDye 800CW goat anti-rabbit and IRDye 680LT goat anti-mouse) [1:10,000] were incubated in the dark at room temperature for 45 minutes. Dual-channel infrared scan and quantitation of immunoblots were conducted using the ODYSSEY Sa infrared imaging system with Image Studio (Ver. 3.1.4) (LI-COR).
The α4 subunit of the cytoplasmic tail of VLA-4 interacts with the cytoskeletal adaptor paxillin, merging intracellular signaling events that drive cellular proliferation and migration (FIG. 13). Compound (II-4) inhibits phosphorylation of paxillin at Y118 (pY118) in the LD-region that interacts with the α4 subunit of VLA-4. To confirm the inhibition of pY118 of paxillin after use of compound (II-4) retinal endothelial cells (REC) were activated with Vascular Endothelial Growth Factor (VEGF) at 50 ng/mL in the presence or absence (vehicle) of compound (II-4) at a concentration of […] for 4-hrs. […] VEGF-induced pY118 was prevented by treatment with compound (II-4) [VEGF-REC treatment versus untreated, *p<0.005; VEGF-induced versus compound (II-4) treatment, **p<0.05—FIG. 13C].
To gain insight into the mechanistic basis for this phenotype, the effect of compound (II-4) on the Src/FAK/paxillin/ERK signalsome in RECs under VEGF was examined. […] Next, characterization of the potential of compound (II-4) to affect FA disassembly through inactivation of ERK was explored. […]
FIG. 13: Targeting the alpha-4 subunit of VLA-4 signaling through inhibition of paxillin. […] Phosphorylation measured by Western Blot. […]

COc1cc(C2OC(=O)Nc3c2ccc2ccccc32)cc(OC)c1OC (centres unmarked) [compound II-4]
spontaneous apoptosis in REC (PI and Annexin V) ([1]; 1 μM for 4-hrs): did not cause an increase in spontaneous apoptosis
apoptosis / cytotoxicity in REC (Annexin-V/PI) ([1]; 1 μM for 24 hours): No evidence of apoptosis was detected; also recorded: non-cytotoxic
VEGF-induced activation of AKT (P-AKT Ser473) (AKT (Ser473)): able to prevent; also recorded: reduced
VEGF-induced PaxY118 phosphorylation (FIG. 20) (paxillin (pY118); REC under VEGF, compound (II-4) 500 nM, SU6656 1 μM): able to inhibit; also recorded: reduced
VEGF-induced paxillin phosphorylation (pY118) (paxillin (pY118); REC, VEGF 50 ng/mL, 4 hrs, inhibitor 1 μM (printed 104)): prevented; also recorded: reduced
